From ChEMBL document CHEMBL1773033, “Cyclic lactam hybrid α-MSH/Agouti-related protein (AGRP) analogues with nanomolar range binding affinities at the human melanocortin receptors” (Bioorg Med Chem Lett, 2011)
Positions of bridges follow the written chain, without caps; N, C: chain ends. Non-standard residues stand in square brackets, D forms with d. Residues, ends and D or L forms follow the SMILES beside them. 2Nal = N[C@@H](Cc1ccc2ccccc2c1)C(=O)O

Tests used:
[1] = molecular target: T1, Melanocyte-stimulating hormone receptor (Homo sapiens, UniProt Q01726); assay: Agonist activity at human MC1R expressed in HEK293 cells assessed as increase in intracellular cAMP accumulation; type: functional, cell-based
Target sequence in this assay (Q01726 whole entry): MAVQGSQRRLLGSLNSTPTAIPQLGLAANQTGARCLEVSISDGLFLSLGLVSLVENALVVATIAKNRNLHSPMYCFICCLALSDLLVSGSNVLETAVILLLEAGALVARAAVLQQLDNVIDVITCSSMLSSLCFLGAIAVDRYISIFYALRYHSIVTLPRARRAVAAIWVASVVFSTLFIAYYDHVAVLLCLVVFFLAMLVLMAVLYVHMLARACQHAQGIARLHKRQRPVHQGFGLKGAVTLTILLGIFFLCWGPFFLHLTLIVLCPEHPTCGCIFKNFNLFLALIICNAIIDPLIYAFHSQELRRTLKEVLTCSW

[2] = molecular target: T2, Melanocortin receptor 4 (Homo sapiens, UniProt P32245); assay: Agonist activity at human MC4R expressed in HEK293 cells assessed as increase in intracellular cAMP level at 10 uM after 3 mins by luminescence counter relative to Ac-Nle-c[Asp-His-D-Phe-Arg-Trp-Lys]-NH2; type: functional, cell-based
T2 sequence (P32245 whole entry): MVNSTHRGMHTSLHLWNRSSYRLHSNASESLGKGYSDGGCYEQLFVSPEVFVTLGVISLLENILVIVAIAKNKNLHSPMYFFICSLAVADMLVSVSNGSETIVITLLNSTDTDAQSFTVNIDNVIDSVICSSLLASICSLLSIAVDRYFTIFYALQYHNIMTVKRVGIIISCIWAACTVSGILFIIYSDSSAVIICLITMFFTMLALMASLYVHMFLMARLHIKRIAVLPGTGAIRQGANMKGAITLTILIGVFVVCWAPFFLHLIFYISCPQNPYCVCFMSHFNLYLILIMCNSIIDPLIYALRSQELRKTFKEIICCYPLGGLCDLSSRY

[3] = molecular target: T3, Melanocortin receptor 3 (Homo sapiens, UniProt P41968); assay: Agonist activity at human MC3R expressed in HEK293 cells assessed as intracellular cAMP accumulation; type: functional, cell-based
T3 sequence (P41968 whole entry): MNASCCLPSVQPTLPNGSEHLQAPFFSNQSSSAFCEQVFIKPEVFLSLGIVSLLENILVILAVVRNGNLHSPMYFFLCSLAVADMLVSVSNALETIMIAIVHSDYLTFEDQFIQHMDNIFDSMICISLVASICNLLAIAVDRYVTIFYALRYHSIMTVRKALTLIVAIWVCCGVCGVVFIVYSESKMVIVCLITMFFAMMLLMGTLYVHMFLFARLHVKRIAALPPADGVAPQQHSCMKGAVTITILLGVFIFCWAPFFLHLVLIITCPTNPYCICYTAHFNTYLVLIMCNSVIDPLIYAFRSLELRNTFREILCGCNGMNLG

[4] = molecular target: T2, Melanocortin receptor 4; assay: Agonist activity at human MC4R expressed in HEK293 cells assessed as intracellular cAMP accumulation; type: functional, cell-based
[5] = molecular target: T4, Melanocortin receptor 5 (Homo sapiens, UniProt P33032); assay: Agonist activity at human MC5R expressed in HEK293 cells assessed as intracellular cAMP accumulation; type: functional, cell-based
T4 sequence (P33032 whole entry): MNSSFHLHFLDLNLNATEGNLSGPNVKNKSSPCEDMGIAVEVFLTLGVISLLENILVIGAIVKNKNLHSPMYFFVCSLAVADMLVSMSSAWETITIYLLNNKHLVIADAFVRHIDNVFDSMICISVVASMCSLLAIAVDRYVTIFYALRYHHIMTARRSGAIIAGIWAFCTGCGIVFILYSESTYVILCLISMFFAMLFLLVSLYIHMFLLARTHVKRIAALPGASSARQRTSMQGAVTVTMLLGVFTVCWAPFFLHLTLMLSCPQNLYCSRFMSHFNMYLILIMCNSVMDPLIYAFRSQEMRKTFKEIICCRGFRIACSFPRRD

[6] = molecular target: T3, Melanocortin receptor 3; assay: Displacement of [125I]-NDP-alpha-MSH from human MC3R expressed in HEK293 cells at 10 uM after 40 mins by Wallac 1470 gamma counting relative to Ac-Nle-c[Asp-His-D-Phe-Arg-Trp-Lys]-NH2; type: cell-based
[7] = molecular target: T2, Melanocortin receptor 4; assay: Displacement of [125I]-NDP-alpha-MSH from human MC4R expressed in HEK293 cells after 40 mins by Wallac 1470 gamma counting; type: cell-based
[8] = molecular target: T4, Melanocortin receptor 5; assay: Agonist activity at human MC5R expressed in HEK293 cells assessed as increase in intracellular cAMP level at 10 uM after 3 mins by luminescence counter relative to Ac-Nle-c[Asp-His-D-Phe-Arg-Trp-Lys]-NH2; type: functional, cell-based
[9] = molecular target: T1, Melanocyte-stimulating hormone receptor; assay: Agonist activity at human MC1R expressed in HEK293 cells assessed as increase in intracellular cAMP level at 10 uM after 3 mins by luminescence counter relative to Ac-Nle-c[Asp-His-D-Phe-Arg-Trp-Lys]-NH2; type: functional, cell-based
Target sequence in this assay (Q01726 whole entry, looked up): as the sequence (Q01726 whole entry) above

[10] = molecular target: T4, Melanocortin receptor 5; assay: Displacement of [125I]-NDP-alpha-MSH from human MC5R expressed in HEK293 cells after 40 mins by Wallac 1470 gamma counting; type: cell-based
[11] = molecular target: T1, Melanocyte-stimulating hormone receptor; assay: Displacement of [125I]-NDP-alpha-MSH from human MC1R expressed in HEK293 cells after 40 mins by Wallac 1470 gamma counting; type: cell-based
Target sequence in this assay (Q01726 whole entry): as above

[12] = molecular target: T3, Melanocortin receptor 3; assay: Displacement of [125I]-NDP-alpha-MSH from human MC3R expressed in HEK293 cells after 40 mins by Wallac 1470 gamma counting; type: cell-based
[13] = molecular target: T1, Melanocyte-stimulating hormone receptor; assay: Displacement of [125I]-NDP-alpha-MSH from human MC1R expressed in HEK293 cells at 10 uM after 40 mins by Wallac 1470 gamma counting relative to Ac-Nle-c[Asp-His-D-Phe-Arg-Trp-Lys]-NH2; type: cell-based
Target sequence in this assay (Q01726 whole entry, looked up): as the sequence (Q01726 whole entry) above

[14] = molecular target: T3, Melanocortin receptor 3; assay: Agonist activity at human MC3R expressed in HEK293 cells assessed as increase in intracellular cAMP level at 10 uM after 3 mins by luminescence counter relative to Ac-Nle-c[Asp-His-D-Phe-Arg-Trp-Lys]-NH2; type: functional, cell-based

SMILES	EC50 [1]	Activity [2] [%]	EC50 [3]	EC50 [4]	EC50 [5]	Activity [6] [%]	IC50 [7]	Activity [8] [%]	Activity [9] [%]	IC50 [10]	IC50 [11]	IC50 [12]	Activity [13] [%]	Activity [14] [%]
C[C@@H]1NC(=O)[C@@H](CCCNC(=N)N)NC(=O)[C@H](Cc2ccccc2)NC(=O)[C@H](Cc2c[nH]c3ccccc23)NC(=O)[C@H](CCCNC(=N)N)NC(=O)CC[C@@H](C(N)=O)NC(=O)[C@H](Cc2ccccc2)NC1=O	Not Active	0	Not Active	Not Active	Not Active	30	Not Active							
C[C@@H]1NC(=O)[C@H](CCCNC(=N)N)NC(=O)[C@@H](Cc2ccccc2)NC(=O)[C@H](Cc2c[nH]c3ccccc23)NC(=O)[C@H](CCCNC(=N)N)NC(=O)CC[C@@H](C(N)=O)NC(=O)[C@H](Cc2ccccc2)NC1=O			Not Active	Not Active	Not Active									
CC(=O)N[C@H]1CC(=O)NCCCC[C@@H](C(N)=O)NC(=O)[C@@H](CC(N)=O)NC(=O)[C@H](Cc2ccc3ccccc3c2)NC(=O)[C@H](Cc2c[nH]c3ccccc23)NC(=O)[C@H](CCCNC(=N)N)NC1=O (Ac-DRW[2Nal][dN]K-NH2; lactam 1-6)	Not Active	0	Not Active	Not Active	Not Active	0	Not Active	0	0	Not Active	Not Active	Not Active		
CC(=O)N[C@H]1CC(=O)NCCCC[C@@H](C(N)=O)NC(=O)[C@@H](CCC(N)=O)NC(=O)[C@H](Cc2ccc3ccccc3c2)NC(=O)[C@H](Cc2c[nH]c3ccccc23)NC(=O)[C@H](CCCNC(=N)N)NC1=O (Ac-DRW[2Nal][dQ]K-NH2; lactam 1-6)	Not Active	0	Not Active	Not Active	Not Active	0	Not Active	0	0	Not Active	Not Active	Not Active		
C[C@@H]1NC(=O)[C@H](CC(N)=O)NC(=O)[C@H](Cc2ccccc2)NC(=O)[C@H](Cc2c[nH]c3ccccc23)NC(=O)[C@H](CCCNC(=N)N)NC(=O)CC[C@@H](C(N)=O)NC(=O)[C@H](Cc2ccccc2)NC1=O (RWFNAFE-NH2; lactam N-7)	Not Active	0	Not Active	Not Active	Not Active		Not Active	0		Not Active	Not Active	Not Active	0	0
C[C@@H]1NC(=O)[C@@H](Cc2cnc[nH]2)NC(=O)[C@H](Cc2ccccc2)NC(=O)[C@H](Cc2c[nH]c3ccccc23)NC(=O)[C@H](CCCNC(=N)N)NC(=O)CC[C@@H](C(N)=O)NC(=O)[C@H](Cc2ccccc2)NC1=O (RWF[dH]AFE-NH2; lactam N-7)	Not Active	0	Not Active	Not Active	Not Active		Not Active	0		Not Active		Not Active		0
C[C@@H]1NC(=O)[C@@H](CC(N)=O)NC(=O)[C@H](Cc2ccccc2)NC(=O)[C@H](Cc2c[nH]c3ccccc23)NC(=O)[C@H](CCCNC(=N)N)NC(=O)CC[C@@H](C(N)=O)NC(=O)[C@H](Cc2ccccc2)NC1=O (RWF[dN]AFE-NH2; lactam N-7)	Not Active	0	Not Active	Not Active	Not Active	0	Not Active	0		Not Active	Not Active	Not Active	0	
